The values that follow come from patent US9682089B2, “Methods and compositions for stimulating reepithelialisation during wound healing” (Institut National de la Sante et de la Recherche Medicale …, priority 2010, dated 2017).

For assay [1], the system named is keratinocyte outgrowth of skin explants. The assay is described as follows: ex vivo wound healing assay: organotypic culture of newborn mouse skin explants, keratinocyte outgrowth. In kind it is cell-based. To be noted: 0.1 mM in culture medium, 7 days culture.
Another assay has as its system ENaC. The assay is described as follows: real-time PCR analysis of ENaC subunit gene expression in skin of K5-MR neonates. In kind it is in vivo, mouse. Particulars: K5-MR pups; pregnant mice were given canrenoate. The text has this: We took advantage of the K5-MR mouse model to question whether expression of ENaC and its main regulators may be altered by MR overexpression. Skin samples from control and K5-MR neonates were processed for real-time PCR analysis of gene expression.
Background: Quantitative PCR measures a nucleic acid by following its amplification.

SMILES strings stand for the structures.

With `C[C@]12CCC(=O)C=C1C=C[C@@H]1[C@@H]2CC[C@@]2(C)[C@H]1CC[C@@]2(O)CCC(=O)O` [potassium canrenoate], the “impaired keratinocyte outgrowth of the explants” value in assay [1] (skin explants from K5-MR pups (MR overexpression in basal keratinocytes)) was “partially but significantly improved”. The “keratinocyte outgrowth of the explants” value in assay [1] (skin explants from control pups) is “no effect”. Moreover, in the assay on ENaC, the “enhanced skin mRNA expression of all 3 subunits of ENaC (abnormal pattern of expression)” value is reported as “blunted”.
